# Measurements: patent US10792287B2, “Methods for treating mitochondrial diseases” (The Regents of the University of California, priority 2015, dated 2020)
# Legend:
# [1] = system: innate immune/inflammatory response in Ndufs4 KO retina; experiment: Retinal gene expression of innate immune and inflammatory markers after drug treatment (Example 3); assay type: in vivo, mouse; settings: Ndufs4 KO mice; doses as in drug formulation
# Description: The graphs represent RNA expression of B2m (FIG. 21A), Tlr2 (FIG. 21B), Cxc110 (FIG. 21C), Cc15 (FIG. 21D), and Aif1 (FIG. 21E) in the wild type and Ndufs4 knockout retina. Bars represent mean delta Ct values normalized to housekeeping genes, Actb and Mapk1. Error bars represent standard error of the mean. Statistical significance was determined by two-tailed student's t test. * P<0.05, ** P<0.01, **** P<0.0001.
# (§1) Wild type and Ndufs4 knockout mice were placed in one of five groups: vehicle, papaverine (20 mg/kg), zolpidem (20 mg/kg), rapamycin (8 mg/kg), or idebenone (200 mg/kg). For papaverine, zolpidem, and rapamycin, drug was dissolved in DMSO which was diluted in 5% PEG-400/5% Tween-20 in PBS. Vehicle contained all components except for the drug. The solution was then sterile filtered and intraperitoneal injections were performed using a 30 gauge needle. Idebenone was administered as a jelly and consumed orally.
# We have previously shown that inflammatory gene expression of Aif1, Tlr2, B2m, Cc15, and Cxc110 are all elevated in the Ndufs4 KO mouse compared to wild type by more than 3-fold, indicating an inflammatory pathomechanism of mitochondrial blindness (Yu et al., Proc Natl Acad Sci USA, 2015, 112(42): E5689-98). […] Papaverine, zolpidem, rapamycin, and idebenone were administered to Ndufs4 KO mice to determine whether their protection of vision (FIG. 20) was through an anti-inflammatory mechanism of action. […] Thus, papaverine, zolpidem, and rapamycin appear to protect mitochondrial loss of vision through an antiinflammatory mechanism.
# [2] = system: 11778 (G>A) mutant cybrid; experiment: Mitochondrial copy number (MT-TL1/B2M ratio), mutant cybrids; assay type: cell-based; settings: LHON mutant cells [11778(G>A)]; 24 hrs exposure
# Description: (§2) FIGS. 14A-14C illustrate the effect of drugs on the mitochondrial copy number. Difference of mitochondrial copy number between 11778 (G>A) mutant and control cybrids (FIG. 14A). Effect of zolpidem and papaverine on the control healthy cybrid mitochondrial copy number (FIG. 14B) and 11778 (G>A) mutant cybrid mitochondrial copy number (FIG. 14C). Cells were treated with either vehicle or one of the drugs at specified concentration for 24 h. The cells were harvested after 24 h and the ratio between MT-TL1 and B2M was determined. Data is presented as average relative fold change±std. deviation from three independent observations. Statistical significance (p<0.05) is denoted by ‘*’ and was determined by one way ANOVA and Dunett's post hoc test.
# control healthy cybrid = experiment: Mitochondrial copy number (MT-TL1/B2M ratio), control cybrids; assay type: cell-based; settings: control cells; 24 hrs exposure
# Description: as §2
# Ndufs4 KO mice [3] = experiment: Microglia activation (Iba1 staining of whole mount retinas); assay type: in vivo, mouse; settings: two weeks (P21-P35) intraperitoneal treatment
# LHON cybrids (11778 G>A) = experiment: Complex I-driven ATP synthesis in rotenone-inhibited LHON mutant cybrids (luciferase-based, high-throughput screen and concentration-response); assay type: cell-based
# control cybrids = experiment: Papaverine response in rotenone-inhibited control cybrids; assay type: cell-based
# From the text: FIG. 19A depicts response to papaverine in control cybrids. FIG. 19B depicts response to papaverine in mutant cybrids.
# Ndufs4 knockout mice = experiment: Visual cliff test; assay type: in vivo, mouse; settings: P21-P35 treatment; papaverine 20 mg/kg, zolpidem 20 mg/kg, rapamycin 8 mg/kg i.p.; idebenone 200 mg/kg oral
# [4] = system: permeabilized LHON mutant (11778 G>A) cells; experiment: Complex I-driven ATP synthesis, drug applied to permeabilized LHON mutant cells; assay type: cell-based; settings: permeabilized cells (30 min) instead of intact cells (2 h); rotenone 0.03 μM
# Description: Cells were permeabilized with streptolysin O and mitochondrial complex I-driven ATP synthesis was measured in presence of complex I substrates (malate/pyruvate). […] Intact cells were permeabilized with streptolysin O and mitochondrial complex I-driven ATP synthesis was measured in presence of complex I substrates (malate/pyruvate).
# Ndufs4 KO mice [5] = experiment: Starburst amacrine cell count (ChAT staining of whole retina); assay type: in vivo, mouse; settings: two weeks (P21-P35) intraperitoneal injections
# Description: 20× confocal images of whole retina stained with ChAT (marker of starburst amacrine cells) from wild type (FIG. 22A), Ndusf4 KO vehicle treated (FIG. 22B), Ndufs4 KO papaverine treated (FIG. 22C), Ndufs4 KO zolpidem treated (FIG. 22D), and Ndufs4 KO rapamycin treated (FIG. 22E) are shown.
# as §1
compound,measurement,setting,value
COc1ccc(Cc2nccc3cc(OC)c(OC)cc23)cc1OC [papaverine],"innate immune/inflammatory gene expression (B2m, Tlr2, Cxcl10, Ccl5, Aif1) in retina",[1],significantly inhibited a portion of the innate immune/inflammatory response
same,ratio of mtDNA/nDNA,[2],did not significantly change the ratio of mtDNA/nDNA
same,ratio of mtDNA/nDNA,control healthy cybrid,did not significantly change the ratio of mtDNA/nDNA
same,microglia activation,Ndufs4 KO mice [3],significant inhibition of microglia activation
same,fold induction at 10 µM,"LHON cybrids (11778 G>A); 20 h, read-out: Fold change of ATP synthesis rate greater than 2x Median Absolution Deviation",2.4
same,reversal of rotenone sensitivity of complex I-driven ATP synthesis,"LHON cybrids (11778 G>A); different concentrations of drug 22 h, then rotenone 0.03 μM 2 h",dose-dependently reversed the rotenone sensitivity
same,protective effect with short treatment of intact cells,LHON cybrids (11778 G>A); intact cells treated with papaverine and rotenone 0.03 μM for 2 hrs,protective effect of papaverine was observed
same,"concentration-dependent reversal of rotenone-induced ATP synthesis inhibition, comparison of the two hits",LHON cybrids (11778 G>A); papaverine vs zolpidem,stronger than Zolpidem
same,complex 1-dependent ATP synthesis in normal cells inhibited by rotenone,control cybrids,dose dependently stimulates complex 1-dependent ATP synthesis
same,visual function (median # edge detections),Ndufs4 knockout mice,visual function was preserved
same,complex I driven ATP production in permeabilized cells,[4],inhibited complex I driven ATP production
same,starburst amacrine cell loss,Ndufs4 KO mice [5],less cell loss than vehicle-treated Ndufs4 KO mice
